Measurements as given in patent US20240049721A1, “COMPOSITIONS AND METHODS FOR CONTROLLING FUNGI” (priority 2020, published 2024).
Where “and” joins values, the source holds several entries; their conditions need not be identical. Identical values can stand only once.

What was measured:
[1] = test system: Leaf blotch; test: Wheat trial: leaf blotch; type: in vivo; conditions: wheat crop
[2] = test system: Fusarium graminearum; type: in vivo; conditions: wheat crop
[3] = Oxidative degradation of essential oils under UV and Vis light; type: physicochemical
Description: AgriCell-encapsulated EOs, which were AC-Eugenol, AC-Geraniol, and AC-Thymol, (200 mg/mL of EO loaded with 200 mg/mL of AgriCell) were diluted 1:10 in deionized water (total volume 1000 μL, 14 replicates for each EO) and the solutions were left under UV radiation for a total period of 7 days. One replicate of each EO per treatment was collected daily and tested for EO content by UV-Vis spectroscopy as described in Example 2. Results were reported as concentration of EO as function of time for each stability condition.

[4] = Thermal degradation of essential oils at 40° C.; type: physicochemical
Description: AgriCell-encapsulated EOs, which were AC-Eugenol, AC-Geraniol, and AC-Thymol, (200 mg/mL of EO loaded with 200 mg/mL of AgriCell) were diluted 1:10 in deionized water (total volume 1000 μL, 14 replicates for each EO) and the solutions were left at 40° C. for a total period of 7 days. One replicate of each EO per treatment was collected daily and tested for EO content. Results were reported as concentration of EO as function of time for each stability condition.

[5] = Loading (encapsulation) efficacy of essential oils into AgriCell; type: physicochemical; conditions: EO encapsulated into AgriCell; original EO concentration 200 mg/mL; UV-Vis at 280 nm after ethanol extraction
Description: After AgriCells are purified, the concentrated AgriCell paste or dry lyophilized powder is loaded with EOs. If dry, the AgriCells are first homogenized into a finer powder through mechanical homogenization. A stock solution from each EO is prepared in ethanol at 100 mg/mL-200 mg/mL. Lyophilized AgriCells would then be suspended in a solution with the EO solution at a ratio of 1 g of dry AgriCells to 10 mL of EO solution. Once resuspended, the ethanol is allowed to evaporate overnight, leaving behind EO encapsulated AgriCells in the process. After this overnight period, encapsulated AgriCells are removed from the beaker, and the EO-encapsulated AgriCell powder is mechanically homogenized. This encapsulated product is ready for resuspension in its appropriate medium. Loading efficacy was measured and/or calculated as percentage of EO loaded into AgriCell after extraction with ethanol 100% v/v and quantification by UV-Vis spectroscopy. Eugenol, geraniol and thymol were quantified at 280 nm.

[6] = test system: Botrytis cinerea; conditions: against B. cinerea; reported value; cited from earlier work
[7] = Thermogravimetric analysis (TGA) 37° C. to 500° C.; type: physicochemical; conditions: temperature increase from 37° C. to 500° C.
Description: FIG. 9 illustrates thermogravimetric Analysis (“TGA”) between AgriCell encapsulated Thymol (“AC Thymol”) and free Thymol (“Thymol”; not encapsulated by AgriCell) along with gradual increase of temperature from 37° C. to 500° C.

Question: Which “Leaf blotch Incidence %” value [1] does the source give for `CC(C)(C)C(O)(CCc1ccc(Cl)cc1)Cn1cncn1` (stereo not drawn) [Tebuconazole (Folicur), Tebuconazole] here?
Answer: 100%

Question: What about the “Leaf blotch severity %” value [1] of the same compound?
Answer: 3.6% and 3.8%

Question: What about the “Average FHB severity %” value [2] of the same compound?
Answer: 8.3% and 1.5%

Question: What about the “FHB Incidence %” value [2] of the same compound?
Answer: 4.2% and 2.5%

Question: What does the source list for `C=CCc1ccc(O)c(OC)c1` [eugenol]?
Answer: oxidative degradation (reduction of EO) ([3]; 7 days, 20 mg/mL): 82.6%; percentage of degradation (thermal) ([4]; 7 days, 20 mg/mL): 82.6%; encapsulation efficacy [5]: 95.5%

Question: Which “oxidative degradation (reduction of EO)” value ([3]; UV radiation, after 7 days, diluted 1:10 in deionized water) does the source give for `CC(C)=CCC/C(C)=C/CO` [geraniol] here?
Answer: 72.6%

Question: And the “percentage of degradation (thermal)” value ([4]; 40° C., day 7, diluted 1:10 in deionized water)?
Answer: 84.2%

Question: What about the encapsulation efficacy [5] of the same compound?
Answer: 89.0%

Question: For `Cc1ccc(C(C)C)c(O)c1` [thymol], which “oxidative degradation (reduction of EO)” value ([3]; 7 days, 20 mg/mL) is on record?
Answer: 55.8%

Question: What about the “reported EC50” value [6] of the same compound?
Answer: 21.32 µg/mL

Question: What about the “percentage of degradation (thermal)” value ([4]; 7 days, 20 mg/mL) of the same compound?
Answer: 79.1%

Question: And the encapsulation efficacy [5]?
Answer: 91.8%

Question: And the “start of accelerated degradation (TGA)” value [7]?
Answer: about 62 °C
